Data taken from PubChem BioAssay AID1259407 (Chemical Carcinogenesis Research Information System (CCRIS), 2018).
The source made the active and inactive calls. The rule behind the calls is not given here.

Test system: CCRIS mutagenicity, Ames/micronucleus/aberration tests
Assay: CCRIS mutagenicity studies
[1] = Test System: AMES SALMONELLA TYPHIMURIUM, Strain/Indicator: TA98, Metabolic Activation: NONE, Method: PREINCUBATION
[2] = Test System: AMES SALMONELLA TYPHIMURIUM, Strain/Indicator: TA100, Metabolic Activation: NONE, Method: PREINCUBATION
[3] = Test System: AMES SALMONELLA TYPHIMURIUM, Strain/Indicator: TA98, Metabolic Activation: NONE, Method: STANDARD PLATE
[4] = Test System: AMES SALMONELLA TYPHIMURIUM, Strain/Indicator: TA98, Metabolic Activation: RAT, LIVER, S-9, AROCLOR 1254, Method: STANDARD PLATE
[5] = Test System: AMES SALMONELLA TYPHIMURIUM, Strain/Indicator: TA100, Metabolic Activation: NONE, Method: STANDARD PLATE
[6] = Test System: AMES SALMONELLA TYPHIMURIUM, Strain/Indicator: TA100, Metabolic Activation: RAT, LIVER, S-9, AROCLOR 1254, Method: STANDARD PLATE

Cc1cccc2cccnc12
mutagenic call (Test System: AMES SALMONELLA TYPHIMURIUM, Strain/Indicator: TA98, Metabolic Activation: HAMSTER, LIVER, S-9, AROCLOR 1254 (30%), Method: PREINCUBATION): active; positive
mutagenic call [1]: inactive; negative
mutagenic call (Test System: AMES SALMONELLA TYPHIMURIUM, Strain/Indicator: TA98, Metabolic Activation: RAT, LIVER, S-9, AROCLOR 1254 (30%), Method: PREINCUBATION): inactive; negative
mutagenic call (Test System: AMES SALMONELLA TYPHIMURIUM, Strain/Indicator: TA100, Metabolic Activation: HAMSTER, LIVER, S-9, AROCLOR 1254 (30%), Method: PREINCUBATION): active; positive
mutagenic call [2]: inactive; negative
mutagenic call (Test System: AMES SALMONELLA TYPHIMURIUM, Strain/Indicator: TA100, Metabolic Activation: RAT, LIVER, S-9, AROCLOR 1254 (30%), Method: PREINCUBATION): inactive; negative
mutagenic call (Test System: AMES SALMONELLA TYPHIMURIUM, Strain/Indicator: TA100, Metabolic Activation: S-9, Method: PREINCUBATION): inactive; negative
mutagenic call (Test System: UDS RODENT HEPATOCYTES, Strain/Indicator: THY INCORP (NON-S-PHASE), Metabolic Activation: NONE, Method: AUTORADIOGRAPHY): active; positive

c1ccc2c(c1)ccc1cc3ccc4ccncc4c3cc12
mutagenic call [3]: inactive; negative
mutagenic call (Test System: AMES SALMONELLA TYPHIMURIUM, Strain/Indicator: TA98, Metabolic Activation: RAT, LIVER, S-9, AROCLOR 1254 (10%), Method: STANDARD PLATE): active; positive
mutagenic call [4]: active; positive
mutagenic call [5]: inactive; negative
mutagenic call (Test System: AMES SALMONELLA TYPHIMURIUM, Strain/Indicator: TA100, Metabolic Activation: RAT, LIVER, S-9, AROCLOR 1254 (10%), Method: STANDARD PLATE): active; positive
mutagenic call [6]: active; positive

NCC(=O)O
mutagenic call (Test System: AMES SALMONELLA TYPHIMURIUM, Strain/Indicator: TA97, Metabolic Activation: NONE, Method: PREINCUBATION): inactive; negative
mutagenic call (Test System: AMES SALMONELLA TYPHIMURIUM, Strain/Indicator: TA97, Metabolic Activation: RAT, LIVER, S-9, AROCLOR 1254, Method: PREINCUBATION): inactive; negative
mutagenic call (Test System: AMES SALMONELLA TYPHIMURIUM, Strain/Indicator: TA98, Metabolic Activation: HAMSTER, LIVER, S-9, AROCLOR 1254, Method: PREINCUBATION): inactive; negative
mutagenic call [1]: inactive; negative
mutagenic call [3]: inactive; negative
mutagenic call (Test System: AMES SALMONELLA TYPHIMURIUM, Strain/Indicator: TA98, Metabolic Activation: RAT, LIVER, S-9, AROCLOR 1254, Method: PREINCUBATION): inactive; negative
mutagenic call [4]: inactive; negative
mutagenic call (Test System: AMES SALMONELLA TYPHIMURIUM, Strain/Indicator: TA100, Metabolic Activation: HAMSTER, LIVER, S-9, AROCLOR 1254, Method: PREINCUBATION): inactive; negative
mutagenic call [2]: inactive; negative
mutagenic call [5]: inactive; negative
mutagenic call (Test System: AMES SALMONELLA TYPHIMURIUM, Strain/Indicator: TA100, Metabolic Activation: RAT, LIVER, S-9, AROCLOR 1254, Method: PREINCUBATION): inactive; negative
mutagenic call [6]: inactive; negative
mutagenic call (Test System: AMES SALMONELLA TYPHIMURIUM, Strain/Indicator: TA102, Metabolic Activation: NONE, Method: PREINCUBATION): inactive; negative
mutagenic call (Test System: AMES SALMONELLA TYPHIMURIUM, Strain/Indicator: TA102, Metabolic Activation: RAT, LIVER, S-9, AROCLOR 1254, Method: PREINCUBATION): inactive; negative
mutagenic call (Test System: AMES SALMONELLA TYPHIMURIUM, Strain/Indicator: TA1535, Metabolic Activation: HAMSTER, LIVER, S-9, AROCLOR 1254, Method: PREINCUBATION): inactive; negative
mutagenic call (Test System: AMES SALMONELLA TYPHIMURIUM, Strain/Indicator: TA1535, Metabolic Activation: NONE, Method: PREINCUBATION): inactive; negative
mutagenic call (Test System: AMES SALMONELLA TYPHIMURIUM, Strain/Indicator: TA1535, Metabolic Activation: NONE, Method: STANDARD PLATE): inactive; negative
mutagenic call (Test System: AMES SALMONELLA TYPHIMURIUM, Strain/Indicator: TA1535, Metabolic Activation: RAT, LIVER, S-9, AROCLOR 1254, Method: PREINCUBATION): inactive; negative
mutagenic call (Test System: AMES SALMONELLA TYPHIMURIUM, Strain/Indicator: TA1535, Metabolic Activation: RAT, LIVER, S-9, AROCLOR 1254, Method: STANDARD PLATE): inactive; negative
mutagenic call (Test System: AMES SALMONELLA TYPHIMURIUM, Strain/Indicator: TA1537, Metabolic Activation: HAMSTER, LIVER, S-9, AROCLOR 1254, Method: PREINCUBATION): inactive; negative
mutagenic call (Test System: AMES SALMONELLA TYPHIMURIUM, Strain/Indicator: TA1537, Metabolic Activation: NONE, Method: PREINCUBATION): inactive; negative
mutagenic call (Test System: AMES SALMONELLA TYPHIMURIUM, Strain/Indicator: TA1537, Metabolic Activation: NONE, Method: STANDARD PLATE): inactive; negative
mutagenic call (Test System: AMES SALMONELLA TYPHIMURIUM, Strain/Indicator: TA1537, Metabolic Activation: RAT, LIVER, S-9, AROCLOR 1254, Method: PREINCUBATION): inactive; negative
mutagenic call (Test System: AMES SALMONELLA TYPHIMURIUM, Strain/Indicator: TA1537, Metabolic Activation: RAT, LIVER, S-9, AROCLOR 1254, Method: STANDARD PLATE): inactive; negative
mutagenic call (Test System: AMES SALMONELLA TYPHIMURIUM, Strain/Indicator: TA1538, Metabolic Activation: NONE, Method: STANDARD PLATE): inactive; negative
mutagenic call (Test System: AMES SALMONELLA TYPHIMURIUM, Strain/Indicator: TA1538, Metabolic Activation: RAT, LIVER, S-9, AROCLOR 1254, Method: STANDARD PLATE): inactive; negative
mutagenic call (Test System: MOUSE LYMPHOMA, Strain/Indicator: L5178Y (TK+/TK-), Metabolic Activation: NONE): inactive; negative
mutagenic call (Test System: MOUSE LYMPHOMA, Strain/Indicator: L5178Y (TK+/TK-), Metabolic Activation: RAT, LIVER, S-9, AROCLOR 1254): inactive; negative
mutagenic call (Test System: MOUSE LYMPHOMA, Strain/Indicator: L5178Y (TK+/TK-), Metabolic Activation: RAT, LIVER, S-9, AROCLOR 1254, Method: SUSPENSION/PLATE): inactive; negative. reevaluation of results: inconclusive
mutagenic call (Test System: Mouse lymphoma, Strain/Indicator: L5178Y (tk+/tk-), Metabolic Activation: None, Method: Suspension/plate): active; inconclusive (previous evaluation positive)
mutagenic call (Test System: UDS RAT PRIMARY HEPATOCYTES, Metabolic Activation: NONE): inactive; negative
